Test results taken from patent US7071232B1, “Small molecules that increase the conversion of food to body weight gain” (priority 1998, dated 2006).
Where “and” joins values, the source holds several entries; their conditions need not be identical. Equal entries are not always repeated. Where two headings read alike, the source gives them in different places.

What was measured:
[1] = tested on: Peterson×Hubbard male broiler chicks; conditions: in vivo
[2] = tested on: Avian x Ross broiler chicks; test: Second experiment, less environmental stress: feed efficiency ratios through day 14; assay type: in vivo; conditions: for Feed efficiency ratio, MEAN: through day 14; for conversion of feed to weight vs saline (in words): day 14
[3] = tested on: Peterson×Hubbard male broiler chicks; conditions: in vivo; remark: listed apart in the source

NCCC(=O)NCCSSCCNC(=O)CCN [beta-alethine]
Survival (% Alive) [1]: 96% and 100% and 99% and 98% | chicks died in one pen [1]: 5 | mortality rate [1]: 0% | # dead from all causes of death (cumulative) ([1]; sc): 0 | Survival (% Alive) ([1]; sc): 100% | % decrease over saline control, saline #1 ([2]; 2 pg in ovo vs saline in ovo #1): 0.34% | % decrease over saline control, saline #2 ([2]; 2 pg in ovo vs saline in ovo #2): −0.34% | Feed efficiency ratio, MEAN ([2]; 2 pg per bird in ovo): 1.181 | Feed efficiency ratio, MEAN ([2]; 2 pg per bird sc): 1.173 | % decrease over saline control ([2]; 2 pg sc vs saline s.c. control): −0.89% | % decrease over saline control, saline #1 ([2]; 2 ng in ovo + fed in water (2 ng weekly) vs saline in ovo #1): 2.39% | % decrease over saline control, saline #2 ([2]; 2 ng in ovo + fed in water (2 ng weekly) vs saline in ovo #2): 1.73% | Feed efficiency ratio, MEAN ([2]; 2 ng in ovo + fed in water (2 ng weekly)): 1.157 | % decrease over saline control, saline #1 ([2]; 2 ng in ovo vs saline in ovo #1): 3.21% | conversion of feed to weight vs saline (in words) ([2]; 2 ng in ovo): significantly greater conversion of feed to weight | Feed efficiency ratio, MEAN ([2]; 2 ng per bird in ovo): 1.147 | Feed efficiency ratio, MEAN ([2]; 2 ng per bird sc): 1.150 | conversion of feed to weight vs saline (in words) ([2]; 2 ng s.c., not significant vs s.c. saline): significantly better than saline given in ovo | % decrease over saline control ([2]; 2 ng sc vs saline s.c. control): 1.16% | average decrease in feed efficiency ratios ([2]; normal flock of Avian×Ross broiler chicks): about 4% | Deliverable Weight Ratio [3]: 1.367 | Deliverable Weight Ratio, % improvement vs negative control [3]: 10.8% | Feed Efficiency [3]: 1.298 | Feed Efficiency, % improvement vs negative control [3]: 7.9%
